Results on 2 molecules are retold here after patent US9775915B2, “Trioxacarcins, trioxacarcin-antibody conjugates, and uses thereof” (President and Fellows of Harvard College, priority 2012, dated 2017).

Molecules are shown by their SMILES. “Also recorded” adds a separate entry of the source.

The subject of data set [1] is lung (LXFL 529L, H-460), mammary (MCF-7), and CNS (SF-268) cancer cell lines. The note with it: human cancer cell lines; Maskey et al. 2004; cited from earlier work.
The test system of another data set is H460 cells. Kind of data set: Cell proliferation assay (CellTiter-Blue resazurin), H460 cells. It counts as cell-based. The note with it: 72 h incubation. A general note: Resazurin is reduced to fluorescent resorufin, in cell work by metabolically active cells.
Data set [2] in a line: Chemical stability (base, aqueous or alcoholic solvents). The data set is classed as physicochemical. The note with it: basic conditions in aqueous or alcoholic solvents.
Data set [3] deals with H460, T-47D, HEK293, N87, MDA-MB-361/DYT2, HT-29, HL-60 and HEL 92.1.7 cells. As to the kind of experiment: Growth inhibition (GI50) comparison of trioxacarcins, FIG. 10 cell line panel. It counts as cell-based. The note with it: structure-activity comments on FIG. 10. The method, then:
Cell Proliferation Assay. A suspension of H460 cells (3000 cells/well) in growth medium was seeded onto a 96-well plate. The 96-well plate was incubated for 24 h at 37° C. Stock solutions of each compound were diluted serially and the resulting solutions were administrated to cells to achieve final concentrations of 110 pM to 250 nM (trioxacarcin A) or 1.1 nM to 2.5 μM (all other compounds). After incubating at 37° C. for 72 h, 20 μL of resazurin solution (Promega CellTiter-Blue® Cell Viability Assay) was added to each well. After incubating at 37° C. for 2.0 h, the fluorescence (560 nm excitation/590 nm emission) was recorded using a microplate reader (SpectraMax PLUS^384) as a measure of viable cells. Percent growth inhibition was calculated for each well, based upon the following formula: Percent growth inhibition=100×(S−B0)/(Bt−B0); where S is the sample fluorescence, Bt is the average fluorescence for a vehicle-treated population of cells at the completion of the assay, and B0 is the average fluorescence for an untreated population of cells at the beginning of the assay. The average percent inhibition at each concentration was plotted against log(concentration), and a curve fit was generated using a four-parameter logistic equation. GI50 values were computed to reflect the concentrations at which the resulting curves pass through 50% inhibition. […]

Experimental for H460 cells: H460 cells were purchased from American Type Culture Collection (ATCC).
A suspension of H460 cells (3000 cells/well) in growth medium was seeded onto a 96-well plate. The 96-well plate was incubated for 24 h at 37° C. […] After incubating at 37° C. for 72 h, 20 μL of resazurin solution (Promega CellTiter-Blue® Cell Viability Assay) was added to each well. […] Percent growth inhibition was calculated for each well, based upon the following formula: Percent growth inhibition=100×(S−B0)/(Bt−B0); where S is the sample fluorescence, Bt is the average fluorescence for a vehicle-treated population of cells at the completion of the assay, and B0 is the average fluorescence for an untreated population of cells at the beginning of the assay. The average percent inhibition at each concentration was plotted against log(concentration), and a curve fit was generated using a four-parameter logistic equation.

For orientation: GI50 means the concentration that inhibits growth by half. In the case of `COc1c2c(c(O)c3c4c(c(C)cc13)[C@@H]1O[C@@]3(C(OC)OC)O[C@@H]1[C@@](O[C@H]1C[C@@H](O)[C@@](O)(C(C)=O)[C@H](C)O1)(O4)[C@@]31CO1)C(=O)[C@@H](O)C[C@@H]2O[C@H]1C[C@@](C)(O)[C@H](OC(C)=O)[C@H](C)O1` [trioxacarcin A], the IC70 entry in data set [1] is on record as “subnanomolar; also recorded: subnanmolar”. This molecule also displayed a GI50 in the data set on H460 cells of 0.85 ± 0.36 nM. Moreover, in data set [2], the “stability under basic conditions” value is reported as “unstable”.

As to `COc1c2c(c(O)c3c4c(c(C)cc13)[C@@H]1O[C@@]3(C(OC)OC)O[C@@H]1[C@@](O)(O4)[C@@]31CO1)C(=O)[C@@H](O)C[C@@H]2O[C@H]1C[C@@](C)(O)[C@H](OC(C)=O)[C@H](C)O1` [DC-45-A1], in data set [3], the “antiproliferative activity (in words, FIG. 10)” value was “highly potent antiproliferative agents”.
